Values quoted from earlier work, collected in patent US7235541B2, “Neurokinin antagonists for use as medicaments” (Astrazeneca AB, priority 2000, dated 2007).
Like-named read-outs stand apart in the source and are kept apart here. Peptide text beside a SMILES is read from it.

Columns and labels:
[1] = Forced swim test (depression model); only at 30 mg/kg bid; Vassout et al, Neuropeptides 1994
[2] = Elevated plus-maze
[3] = Light-dark box
[4] = Marmoset human intruder; Walsh et al., Psychopharmacology 1995
[5] = Teixeira et al., Eur J Pharmacol 1996
[6] = Stratton et al., Eur. J. Pharmacol. 1993
[7] = Walsh et al., Psychopharmacology 1995

Row | Structure (SMILES) | Outcome [2, 5] | Outcome [3, 6] | Outcome [4] | Outcome [3, 7] | other results
1 | Cc1cc(C)cc(C(=O)N2CC[C@H](NCc3ccnc4ccccc34)C[C@H]2Cc2ccccc2)c1 [CGP 49823] | – | – | – | – | Outcome (Social interaction test, Vassout et al, Neuropeptides 1994): anxiolytic; Outcome (Social interaction, File, Pharm Bio B 1997): anxiolytic; Outcome [1]: antidepressant; Outcome ([2]; Vassout et al, Neuropeptides 1994): inactive
2 | CN(Cc1ccccc1)C(=O)[C@H](Cc1ccc2ccccc2c1)NC(=O)[C@@H]1C[C@@H](O)CN1C(=O)c1cn(C)c2ccccc12 [FK888] | anxiolytic | – | – | – | –
3 | C[C@H](NC(=O)CNC(=O)C1CCCCC1)C(=O)N[C@H](Cc1c[nH]c2ccccc12)C(=O)N[C@@H](Cc1ccccc1)C(=O)N(C)C [GR100679] (HELM PEPTIDE1{[O=C(C1CCCCC1)[*:2]].G.A.[dW].F.[CN(C)[*:1]]}$$$$V2.0) | – | anxiolytic | – | – | –
4 | COC1(C[S@@+]([O-])c2ccccc2)CCN(CCc2c[nH]c3ccc(F)cc23)CC1 [GR159897] | – | – | anxiolytic | anxiolytic | –
5 | CC(=O)NC1(c2ccccc2)CCN(CC[C@H](CN(C)C(=O)c2ccccc2)c2ccc(Cl)c(Cl)c2)CC1 [SR48968] | anxiolytic | anxiolytic | anxiolytic | anxiolytic | –
